Laboratory results from patent US20140371262A1, “PREVENTIVE AND/OR THERAPEUTIC AGENT FOR THROMBOEMBOLISM IN THROMBOEMBOLISM PATIENT WITH SEVERE RENAL IMPAIRMENT” (Daiichi Sankyo Company, Limited, priority 2011, published 2014).

Columns and labels:
NVAF patients = assay: Late phase-II trial targeting NVAF patient in Japan (thromboembolic and bleeding events, 12 weeks); type: in vivo, human; conditions: warfarin group (PT-INR adjusted to 2.0 to 3.0; 1.6 to 2.6 for 70 years or older), 12 weeks
[1] = test system: patients with moderate to-high-risk atrial fibrillation; assay: ENGAGE-AF TIMI-48 phase 3 study of edoxaban versus warfarin in atrial fibrillation
[2] = subgroup whose CLCR had become <30 mL/min during the trial, edoxaban 15 mg (N = 349), warfarin dose adjusted (N = 367)
[3] = warfarin, dose-adjusted to INR 2.0 to 3.0

## CC(=O)CC(c1ccccc1)c1c(O)c2ccccc2oc1=O (stereo not shown) [warfarin, reference compound]
NVAF patients
  Incidence of bleeding events (major, clinically relevant non-major and minor bleeding in total): 20.0%
[1]; [2]
  ACM (all cause mortality): # of events: 13
  Disabling Stroke: # of events: 3
  Disabling Stroke: Event Rate: 0.48 %/yr
  Fatal Bleed: # of events: 2
  Fatal Bleed: Event Rate: 0.32 %/yr
  Fatal SEE: # of events: 0
  Fatal SEE: Event Rate: 0.00 %/yr
  Fatal Stroke: # of events: 3
  Fatal Stroke: Event Rate: 0.48 %/yr
  First Disabling or Fatal Stroke, Fatal SEE, LT or Fatal Bleed, or ACM: # of events: 21
  First Disabling or Fatal Stroke, Fatal SEE, LT or Fatal Bleed, or ACM: Event Rate: 3.36 %/yr
  First Stroke, SEE or TIA: # of events: 14
  First Stroke, SEE or TIA: Event Rate: 2.26 %/yr
  First Stroke, SEE, Major Bleed, or ACM: # of events: 49
  First Stroke, SEE, Major Bleed, or ACM: Event Rate: 8.04 %/yr
  LT Bleed (life threatening): # of events: 5
  LT Bleed (life threatening): Event Rate: 0.80 %/yr
[1]; [3]
  Annualized rate of death from cardiovascular causes: 3.17%
  Annualized rate of major bleeding: 3.43%
  Annualized rate of the primary end point (stroke or systemic embolism) during treatment: 1.50%
  Rate of the key secondary end point (composite of stroke, systemic embolism, or death from cardiovascular causes): 4.43%
